Test results taken from US5340821A, “Composition and method for treating Sjoegren syndrome disease” (Snow Brand Milk Products Co., Ltd., priority 1992, dated 1994).
Counter-ions that a name gives are not always drawn.

Assays:
saliva secretion [1] = assay: Saliva secretion effects in patients suffering from a Sjoegren syndrome disease (Saxon test); type: in vivo, human
From the text: (§1) Five subjects diagnosed to be suffering from a Sjoegren syndrome disease according to the diagnosis criteria made by the study team at the Ministry of Health and Welfare (M. Ofuji, Study Report Summary for 1977, the results for the year 1977 of Diagnostic criteria of Sjoegren's syndrome (Ministry of Health and Welfare's Sjoegren Investigational Research Group), M. Ofugi, Research Report of Ministry of Health and Welfare's specific disease Sjoegren Investigational Research Group in 1977, 3-6, 1978). To each subject was administered said hydrochloric acid addition salt of quinuclidine of formula (II) at a dose of 10 mg, three times a day, each time one hour before meal, for 4 weeks (the first course); 20 mg, three times a day, each time one hour before meal, for 4 weeks (the second course); and 30 mg, three times a day, each time one hour before meal, for 4 weeks (the third course). The Saxon test (Kohler P. F., Winter M. E., Arthritis Rheum, 28, 1128-1132 (1985)) for measuring the saliva secretion was performed before the start of the first course, and after the completion of the first, second, and third courses.

tear secretion = assay: Tear secretion effects in dogs; type: in vivo; conditions: four weeks, 4 female beagle dogs
Experimental: (§2) 2-Methylspiro(1,3-oxathiolane-5,3')quinuclidine hydrochloride of formula (II), in amounts of 0, 0.5, 3, and 18 mg/kg, was orally administered to female beagle dogs (weight: 7.1-9.6 kg) of four groups, each consisting of four dogs, one time a day and for four weeks.

[2] = tested on: Sjoegren syndrome disease; assay: Observation of the patient (Sjoegren syndrome disease); type: in vivo, human
From the text: as §1

[3] = Toxicity Test (LD50, observation of mice for two weeks); set-up: species or system ICR (CD-1) mice; conditions: mouse, in vivo
Experimental: Groups of ICR (CD-1) male and female mice (age: 5 weeks, weight of male mice: 22.0-33.8 g, weight of female mice: 18.8-27.3 g), each consisting of eight mice, were used for the test. 2-methylspiro(1,3-oxathiolane-5,3')quinuclidine hydrochloride of formula (II) was orally, intravenously, or subcutaneously administered at different (high and low) doses. LD50 (50% lethal dose) was determined by the observation of mice for two weeks thereafter.

saliva secretion [4] = assay: Saliva secretion effects in dogs; type: in vivo; conditions: four weeks, 4 female beagle dogs
Experimental: as §2

saliva secretion [5] = assay: Saliva secretion effects in human; type: in vivo; conditions: 10 tested subjects
Experimental: 2-Methylspiro(1,3-oxathiolane-5,3')quinuclidine hydrochloride of formula (II), in amounts of 5, 10, 20, 30, 40, 50, 60, and 70 mg, was orally administered to five men and five women, aged 20-50 years.

[6] = background statement; cited from earlier work

For `CC1OC2(CS1)CN1CCC2CC1` (stereo not shown) [2-methylspiro(1,3-oxathiolane-5,3')quinuclidine hydrochloride], which “Ratio of secreted saliva to the value before the administration in the first course” value (from here on “Ratio of secreted saliva”) (saliva secretion [1]; subject 1, after first course (10 mg three times a day)) is on record?
The value was 1.66.

What about the “Amount of secreted saliva” value (saliva secretion [1]; subject 1, after first course (10 mg three times a day, 4 weeks), before 0.65 g) of the same compound?
Its value is 1.08 g.

And the “Ratio of secreted saliva” value (saliva secretion [1]; subject 1, after second course (20 mg three times a day))?
Its value is 3.15.

And the “Amount of secreted saliva” value (saliva secretion [1]; subject 1, after second course (20 mg three times a day, 4 weeks), before 0.65 g)?
The value was 2.05 g.

What about the “Ratio of secreted saliva” value (saliva secretion [1]; subject 1, after third course (30 mg three times a day)) of the same compound?
The value was 6.00.

And the “Amount of secreted saliva” value (saliva secretion [1]; subject 1, after third course (30 mg three times a day, 4 weeks), before 0.65 g)?
Its value is 3.90 g.

What about the “Ratio of secreted saliva” value (saliva secretion [1]; subject 2, after first course (10 mg three times a day)) of the same compound?
Its value is 1.70.

What about the “Amount of secreted saliva” value (saliva secretion [1]; subject 2, after first course (10 mg three times a day, 4 weeks), before 0.73 g) of the same compound?
Its value is 1.24 g.

What about the “Ratio of secreted saliva” value (saliva secretion [1]; subject 2, after second course (20 mg three times a day)) of the same compound?
Its value is 3.48.

And the “Amount of secreted saliva” value (saliva secretion [1]; subject 2, after second course (20 mg three times a day, 4 weeks), before 0.73 g)?
The value was 2.54 g.

What about the “Ratio of secreted saliva” value (saliva secretion [1]; subject 2, after third course (30 mg three times a day)) of the same compound?
The value was 6.16.

What about the “Amount of secreted saliva” value (saliva secretion [1]; subject 2, after third course (30 mg three times a day, 4 weeks), before 0.73 g) of the same compound?
The value was 4.50 g.

What about the “Ratio of secreted saliva” value (saliva secretion [1]; subject 3, after first course (10 mg three times a day)) of the same compound?
The value was 1.91.

What about the “Amount of secreted saliva” value (saliva secretion [1]; subject 3, after first course (10 mg three times a day, 4 weeks), before 0.76 g) of the same compound?
Its value is 1.45 g.

And the “Ratio of secreted saliva” value (saliva secretion [1]; subject 3, after second course (20 mg three times a day))?
Its value is 2.05.

What about the “Amount of secreted saliva” value (saliva secretion [1]; subject 3, after second course (20 mg three times a day, 4 weeks), before 0.76 g) of the same compound?
The value was 1.56 g.

And the “Ratio of secreted saliva” value (saliva secretion [1]; subject 3, after third course (30 mg three times a day))?
Its value is 4.80.

What about the “Amount of secreted saliva” value (saliva secretion [1]; subject 3, after third course (30 mg three times a day, 4 weeks), before 0.76 g) of the same compound?
Its value is 3.65 g.

What about the “Ratio of secreted saliva” value (saliva secretion [1]; subject 4, after first course (10 mg three times a day)) of the same compound?
Its value is 1.51.

And the “Amount of secreted saliva” value (saliva secretion [1]; subject 4, after first course (10 mg three times a day, 4 weeks), before 0.43 g)?
Its value is 0.65 g.

And the “Ratio of secreted saliva” value (saliva secretion [1]; subject 4, after second course (20 mg three times a day))?
The value was 3.80.

What about the “Amount of secreted saliva” value (saliva secretion [1]; subject 4, after second course (20 mg three times a day, 4 weeks), before 0.43 g) of the same compound?
The value was 1.63 g.

And the “Ratio of secreted saliva” value (saliva secretion [1]; subject 4, after third course (30 mg three times a day))?
The value was 6.72.

What about the “Amount of secreted saliva” value (saliva secretion [1]; subject 4, after third course (30 mg three times a day, 4 weeks), before 0.43 g) of the same compound?
Its value is 2.89 g.

What about the “Ratio of secreted saliva” value (saliva secretion [1]; subject 5, after first course (10 mg three times a day)) of the same compound?
The value was 1.31.

What about the “Amount of secreted saliva” value (saliva secretion [1]; subject 5, after first course (10 mg three times a day, 4 weeks), before 0.45 g) of the same compound?
The value was 0.59 g.

And the “Ratio of secreted saliva” value (saliva secretion [1]; subject 5, after second course (20 mg three times a day))?
The value was 2.16.

And the “Amount of secreted saliva” value (saliva secretion [1]; subject 5, after second course (20 mg three times a day, 4 weeks), before 0.45 g)?
The value was 0.97 g.

What about the “Ratio of secreted saliva” value (saliva secretion [1]; subject 5, after third course (30 mg three times a day)) of the same compound?
The value was 3.27.

And the “Amount of secreted saliva” value (saliva secretion [1]; subject 5, after third course (30 mg three times a day, 4 weeks), before 0.45 g)?
The value was 1.47 g.

And the “Number of animals secreted tear” value (tear secretion; 0.5 mg/kg/day oral)?
The value was 0 animals.

And the “Number of animals secreted tear (%)” value (tear secretion; 0.5 mg/kg/day oral)?
The value was 0%.

And the “Number of animals secreted tear” value (tear secretion; 3.0 mg/kg/day oral)?
Its value is 1 animals.

What about the “Number of animals secreted tear (%)” value (tear secretion; 3.0 mg/kg/day oral) of the same compound?
The value was 25%.

What about the “Number of animals secreted tear” value (tear secretion; 18.0 mg/kg/day oral) of the same compound?
The value was 4 animals.

What about the “Number of animals secreted tear (%)” value (tear secretion; 18.0 mg/kg/day oral) of the same compound?
The value was 100%.

What about the “Observation of the patient: Saliva secretion” value ([2]; subject 1) of the same compound?
Its value is “increased”.

What about the “Observation of the patient: A dry feeling of oral cavity and irritation in the eyes” value ([2]; subject 2) of the same compound?
Its value is “improved”.

What about the “Observation of the patient: The need for drinking water when taking food” value ([2]; subject 3) of the same compound?
Its value is “eliminated”.

And the “Observation of the patient: Incidence of being awaken due to dry mouth at midnight” value ([2]; subject 4)?
Its value is “improved”.

What about the LD50 at 336 h ([3]; iv, female mice) of the same compound?
The LD50 at 336 h was 40.8 mg/kg.

And the LD50 at 336 h ([3]; iv, male mice)?
Its LD50 at 336 h is 45.2 mg/kg.

What about the LD50 at 336 h ([3]; po, female mice) of the same compound?
The LD50 at 336 h was 167 mg/kg.

What about the LD50 at 336 h ([3]; po, male mice) of the same compound?
Its LD50 at 336 h is 139 mg/kg.

And the LD50 at 336 h ([3]; sc, Subcutaneous, female mice)?
The LD50 at 336 h was 78.1 mg/kg.

What about the LD50 at 336 h ([3]; sc, Subcutaneous, male mice) of the same compound?
The LD50 at 336 h was 65 mg/kg.

And the “Number of animals secreted saliva” value (saliva secretion [4]; 0.5 mg/kg/day oral)?
The value was 0 animals.

And the “Number of animals secreted saliva (%)” value (saliva secretion [4]; 0.5 mg/kg/day oral)?
The value was 0%.

What about the “Number of animals secreted saliva” value (saliva secretion [4]; 3.0 mg/kg/day oral) of the same compound?
The value was 3 animals.

What about the “Number of animals secreted saliva (%)” value (saliva secretion [4]; 3.0 mg/kg/day oral) of the same compound?
The value was 75%.

What about the “Number of animals secreted saliva” value (saliva secretion [4]; 18.0 mg/kg/day oral) of the same compound?
Its value is 4 animals.

And the “Number of animals secreted saliva (%)” value (saliva secretion [4]; 18.0 mg/kg/day oral)?
The value was 100%.

And the “Subjects showing promoted saliva secretion” value (saliva secretion [5]; 5 mg oral)?
The value was 0 subjects.

And the “Subjects showing promoted saliva secretion” value (saliva secretion [5]; 10 mg oral)?
Its value is 0 subjects.

And the “Subjects showing promoted saliva secretion” value (saliva secretion [5]; 20 mg oral)?
The value was 2 subjects.

And the “Subjects showing promoted saliva secretion” value (saliva secretion [5]; 30 mg oral)?
Its value is 8 subjects.

What about the “Subjects showing promoted saliva secretion” value (saliva secretion [5]; 40 mg oral) of the same compound?
The value was 10 subjects.

What about the “Subjects showing promoted saliva secretion” value (saliva secretion [5]; 50 mg oral) of the same compound?
The value was 10 subjects.

And the “Subjects showing promoted saliva secretion” value (saliva secretion [5]; 60 mg oral)?
Its value is 10 subjects.

And the “Subjects showing promoted saliva secretion” value (saliva secretion [5]; 70 mg oral)?
Its value is 10 subjects.

For `CC(C[N+](C)(C)C)OC(N)=O` (stereo not shown) [bethanechol], which side effects [6] is on record?
Its side effects is “comprehensive side effects such as headache, hot flush, palpitation, intrathoracic agony, nausea, emesis, diarrhea, abdominal discomfort, pyrosis, stomach discomfort, diaphoresis, and the like”.
